Data published in patent publication US20200255807A1, “IN VITRO PROPAGATION OF PRIMARY CANCER CELLS” (University of Cape Town, priority 2017, published 2020).

B1: Papain: protease enzyme (10 mg/ml) added with collagenase II to the isolation buffer for digesting tumour biopsy tissue (protein, UniProt P00784 134-345, looked up)
Papain: IPEYVDWRQKGAVTPVKNQGSCGSCWAFSAVVTIEGIIKIRTGNLNEYSEQELLDCDRRSYGCNGGYPWSALQLVAQYGIHYRNTYPYEGVQRYCRSREKGPYAAKTDGVRQVQPYNEGALLYSIANQPVSVVLEAAGKDFQLYRGGIFVGPCGNKVDHAVAAVGYGPNYILIKNSWGTGWGENGYIRIKRGTGNSYGVCGLYTSSFYPVKN

Tested on: primary breast cancer cells
Experiment: Isolation of primary breast cancer cells from biopsy samples by digestion with collagenase II plus an additional enzyme (cell yield and viability)
Assay type: cell-based, human
Details: for Mean fold increase in cell number (collagenase II = 1): additional enzyme used in conjunction with 5 μg/ml collagenase II, 45 min at 37° C., compared to collagenase II alone
Method: A fresh primary breast cancer tumour biopsy sample (10-200 mg of tissue) was placed in 5 ml Hanks Balanced Salts (HBSS; Lonza, Germany; pH=7.5) on ice and it was transported immediately to the laboratory. The biopsy sample was weighed and then cut into 1 mm by 1 mm pieces using a scalpel in a BSL2 cabinet. The cut pieces were placed in 1 ml HBSS containing 5 μg/ml collagenase II (Ambion, USA) with or without 5 U/ml hyaluronidase, dispase II or papain (10 mg/ml) and the tissue was digested by incubation at 37° C. with rotation for 45 min. After the incubation time, a […] cell strainer (Becton Dickinson, USA) was placed into a 50 ml tube. The undigested material was pipetted up and down 10 times and then placed onto the cell strainer. The cell strainer was washed with 10 ml of HBSS and the cells were pelleted at 500×g for 5 min. The pelleted cells were then washed with an additional 10 ml of HBSS.
The pelleted cells were re-suspended in DMEM/F12 containing 10% human A/B serum (Western Province Blood Transfusion Services), 100 IU penicillin/streptomycin (Lonza, Germany), 0.1 mM sodium pyruvate (Lonza, Germany), […] (Sigma, Germany), […] (Sigma, Germany), 5 mM ethanolamine (Sigma, Germany), 5 μg/ml selenium (Sigma, Germany) and 10 nM estradiol (Sigma, Germany). The cells were then plated into a multi well plate or dish, which was dependent on the cell number. The breast cancer cells were incubated at 37° C. for 2 days and the medium was replaced with fresh medium without 10 nM estradiol, but with 100 nM cortisol (Sigma, Germany). The medium was replaced every 2 days with fresh medium containing half the concentration of cortisol used on the previous day. When the cells were confluent they were split using a standard procedure (trypsin) into a larger culture vessel.

Row | Molecule | Mean fold increase in cell number (collagenase II = 1) (breast biopsy samples) | Mean fold increase in cell number (collagenase II = 1) (breast biopsy samples, listed as hyaluronidase) | Mean cell viability (additional enzyme used in conjunction with collagenase II for cell isolation, breast biopsy samples (Table 1)) | mean viability of the cells (enzyme used in conjunction with collagenase II, breast biopsy samples) | Mean fold increase in cell number (collagenase II = 1) (breast biopsy samples, listed as papain)
1 | Hyaluronidase | 2.7 (SD = 1.2-4.5) fold | 2.7 fold | 69% | 69% | –
2 | B1 | 0.7 (SD = 0.4-0.9) fold | – | – | – | 0.7 fold
